{"source": "paper PMC9886266", "about": "“New [1,2,4]triazolo[4,3-c]quinazolines as intercalative Topo II inhibitors: Design, synthesis, biological evaluation, and in silico studies” (PLOS ONE, 2023)", "key": {"[1]": {"tested_on": "HepG2 cell line", "experiment": "MTT anti-proliferative assay, HepG2", "assay_type": "cell-based", "details": "Homo sapiens, 48 h, three independent experiments, read-out: In vitro cytotoxicity IC50, HepG2", "procedure": "(§1) In vitro antiproliferative activities of the target molecules were assessed against two human cancer cell lines namely, hepatocellular carcinoma (HepG2) and colorectal carcinoma (HCT-116) using MTT assay.\n(§2) The anti-proliferative activity of the synthesized compounds was assessed using MTT assay protocol. A panel of human cancer cell lines namely, colorectal carcinoma (HCT-116) and hepatocellular carcinoma (HepG2) was used in this test. Doxorubicin was used as a positive control. The cell lines were got from ATCC (American Type Culture Collection) via the Holding company for biological products and vaccines (VACSERA, Cairo, Egypt). The anti-proliferative activities of the tested compounds were determined quantitatively as follows:\n(§3) At first, the cells were cultured into a medium of RPMI-1640 with 10% fetal bovine serum. Then, two different antibiotics were added at 37°C in a 5% CO2 incubator: penicillin (100 units/mL) and streptomycin (100 μg/mL). Next, we seeded the cells in a 96-well plate by a density of 1.0 x 10^4 cells / well at 37°C for 48 h under 5% CO2. The synthesized compounds with different concentrations were applied into the cell lines and incubated for 48 h. After 48 h, 20 μl of MTT solution (5mg/mL) was added and incubated for 4 h. Then, DMSO (100 μl) was added into each well to dissolve the formed purple formazan. After that, a colorimetric assay was measured and recorded at absorbance of 570 nm using a plate reader (EXL 800, USA). The relative cell viability in percentage was calculated as (A570 of treated samples/A570 of untreated sample) X 100.\n(§4) S2: Biological evaluation\n(§5) S2.1. In vitro cytotoxic activity\n(§6) The anti-proliferative activity of the synthesized compounds was assessed using MTT assay protocol. A panel of human cancer cell lines namely, colorectal carcinoma (HCT-116) and hepatocellular carcinoma (HepG2) was used in this test. As we targeted the DNA and Topo […]\n(§7) cell lines were got from ATCC (American Type Culture Collection) via the Holding company for biological products and vaccines (VACSERA, Cairo, Egypt). The anti -proliferative activities of the tested compounds were determined quantitatively as follows:\n(§8) At first, the cells were cultured into a medium of RPMI-1640 with 10% fetal bovine serum.\n(§9) Then, two different antibiotics were added at 37 ᵒC in a 5% CO2 incubator: penicillin (100 units/mL) and streptomycin (100 µg/mL). Next, we seeded the cells in a 96 -well plate by a density of 1.0 x 10^4 cells / well at 37 ᵒC for 48 h under 5% CO2. The synthesized compounds with different concentrations were applied into the cell lines and incubated for 48 h. After 48 h, 20 µl of MTT solution (5mg/mL) was added and incubated for 4 h. Then, DMSO (100 µl) was added into each well to dissolve the formed purple formazan. After that, a colorimetric assay was measured and recorded at absorbance of 570 nm using a plate reader (EXL 800, USA). The relative cell viability in percentage was calculated as (A570 of treated samples/A570 of untreated sample) X 100. […]"}, "[2]": {"tested_on": "HCT-116 cell line", "experiment": "MTT anti-proliferative assay, HCT-116", "assay_type": "cell-based", "details": "Homo sapiens, 48 h, three independent experiments, read-out: In vitro cytotoxicity IC50, HCT-116", "procedure": "as §1, §2, §3, §4, §5, §6, §7, §8, §9"}, "[3]": {"target": "Topo II α and supercoiled pBR322 DNA (Homo sapiens, UniProt P11388)", "sequence (P11388 whole entry)": "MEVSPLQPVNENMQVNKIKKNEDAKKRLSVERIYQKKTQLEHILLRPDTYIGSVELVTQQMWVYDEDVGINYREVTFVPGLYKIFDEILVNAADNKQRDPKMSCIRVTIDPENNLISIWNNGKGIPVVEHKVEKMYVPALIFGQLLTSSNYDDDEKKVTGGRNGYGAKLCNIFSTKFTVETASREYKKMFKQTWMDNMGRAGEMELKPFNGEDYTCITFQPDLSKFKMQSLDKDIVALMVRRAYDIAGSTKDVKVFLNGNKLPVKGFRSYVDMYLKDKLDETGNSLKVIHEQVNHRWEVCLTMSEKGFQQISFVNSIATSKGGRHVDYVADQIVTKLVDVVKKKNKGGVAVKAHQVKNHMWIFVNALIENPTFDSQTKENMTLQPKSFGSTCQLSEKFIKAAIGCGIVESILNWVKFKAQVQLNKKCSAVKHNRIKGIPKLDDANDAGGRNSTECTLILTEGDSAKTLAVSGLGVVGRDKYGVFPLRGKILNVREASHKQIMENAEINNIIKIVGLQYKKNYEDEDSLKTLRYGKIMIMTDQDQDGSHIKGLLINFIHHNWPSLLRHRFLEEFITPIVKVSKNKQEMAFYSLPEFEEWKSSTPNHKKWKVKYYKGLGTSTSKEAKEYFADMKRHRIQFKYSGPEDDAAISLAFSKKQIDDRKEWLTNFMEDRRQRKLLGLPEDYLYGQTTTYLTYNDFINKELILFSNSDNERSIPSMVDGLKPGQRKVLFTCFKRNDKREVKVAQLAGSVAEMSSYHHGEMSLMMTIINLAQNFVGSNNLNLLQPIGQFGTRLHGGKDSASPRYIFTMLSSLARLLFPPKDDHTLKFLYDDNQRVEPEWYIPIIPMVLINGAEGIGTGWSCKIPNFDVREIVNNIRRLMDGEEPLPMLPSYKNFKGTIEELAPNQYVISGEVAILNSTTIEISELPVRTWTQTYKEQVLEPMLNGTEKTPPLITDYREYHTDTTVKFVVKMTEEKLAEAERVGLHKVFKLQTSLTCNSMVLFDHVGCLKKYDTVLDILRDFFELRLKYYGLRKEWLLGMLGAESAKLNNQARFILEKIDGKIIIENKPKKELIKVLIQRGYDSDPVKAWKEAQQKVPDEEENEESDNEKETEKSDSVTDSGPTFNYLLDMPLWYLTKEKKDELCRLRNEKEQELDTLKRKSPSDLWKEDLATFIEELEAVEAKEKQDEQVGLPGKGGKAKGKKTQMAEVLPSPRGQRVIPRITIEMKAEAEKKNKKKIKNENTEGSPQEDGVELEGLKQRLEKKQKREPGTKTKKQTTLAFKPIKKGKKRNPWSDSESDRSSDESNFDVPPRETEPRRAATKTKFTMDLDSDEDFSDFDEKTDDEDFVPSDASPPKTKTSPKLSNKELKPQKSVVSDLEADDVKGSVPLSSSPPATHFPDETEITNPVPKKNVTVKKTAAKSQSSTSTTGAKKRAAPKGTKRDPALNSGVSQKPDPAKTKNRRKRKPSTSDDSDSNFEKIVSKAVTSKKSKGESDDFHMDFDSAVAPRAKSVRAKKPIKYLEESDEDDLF", "experiment": "Topo II-mediated DNA cleavage assay", "assay_type": "biochemical", "procedure": "The Topo II inhibitors may act through two pathways. Firstly, it can stabilize the Topo II-DNA covalent complexes leading to the formation of linear DNA (Topo II poisons). Secondly, it can block the catalytic site of Topo II (Topo II catalytic inhibitors).\nTopo II-mediated DNA cleavage assay was carried out according the reported method by Huang et al. as follows.\nTopo II α (10 U), supercoiled pBR322 DNA (0.2 μg) and compound 16 at concentration of 5 and 10 μM were added in Topo II buffer ([…], pH 8.0, 150 mM NaCl, 10 mM MgCl2 2mM ATP, 0.5mM dithiothreitol, and 30 μg/mL BSA) of 20 μL volume. After incubating for 6 min at 37°C and then respectively adding 2 μL of 10% SDS, 2 μL of 250mM NaEDTA, pH 8.0, 2 μL of 0.8 mg/mL Proteinase K. Following reactions were incubated for another 30 min at 45°C. Samples were mixed with 4 μL of 6×loading buffer, heated at 70°C for 2 min and subjected to electrophoresis in a 1% agarose gel in 1×TAE buffer (30 mL) with 1 μL Gel Red. Finally, DNA bands were visualized by using UV light, photographed by using Alpha Innotech digital imaging system.\nAfter that, the DNA was run on 1% agarose gel in BioRad gel electrophoresis system for 1–2 h followed by staining with GelRedTM stain for 2 h and destained for 15 min with TAE buffer. The gel was imaged via BioRad’s Gel DocTMEZ system. Both supercoiled and linear strands DNA were incorporated in the gel as markers for DNA-Topo II intercalators. The results of IC50 values were calculated using the GraphPad Prism version 7. Each reaction was performed in duplicate, and at least three independent determinations of each IC50 were made.\nS2.3. DNA/Methyl Green Assay […]\nmethyl green dye method described by Burres et al. Activated Calf Thymus DNA (Merk, Germany) was treated with methyl green (Merk, Germany), then the synthesized compounds were applied to displace the methyl green dye, producing equivalent color. The results were reported […]\nS2.4. Topo II-mediated DNA cleavage assay […]"}, "[4]": {"tested_on": "Vero cells", "experiment": "In vitro cytotoxicity against normal cell line", "assay_type": "cell-based", "description": "Although Vero cell are not human cell, it was reported that Vero cells can be used as normal cells to validate the toxicity of the synthesized compounds [43]."}}}
{"smiles": "CCCNc1nc2ccccc2c2nnc(C(F)(F)F)n12", "note": "[Compound 16, N-Propyl-3-(trifluoromethyl)-[1,2,4]triazolo[4,3-c]quinazolin-5-amine]", "values": [{"measurement": "IC50", "setting": "[1]", "value": "6.29 ± 0.3", "unit": "µM"}, {"measurement": "IC50", "setting": "[2]", "value": "2.44 ± 0.1", "unit": "µM"}, {"measurement": "Effect on relaxation of supercoiled DNA by Topo II", "setting": "[3]; 5 μM", "value": "induced relaxation for the DNA"}, {"measurement": "Effect on relaxation of supercoiled DNA by Topo II", "setting": "[3]; 10 μM", "value": "blocked the formation of relaxed DNA"}, {"measurement": "Formation of linear DNA", "setting": "[3]; all concentrations (5 and 10 μM)", "value": "the linear DNA was not formed"}, {"measurement": "IC50", "setting": "[4]; Chlorocebus sabaeus, Vero", "value": 63.4, "unit": "µM"}, {"measurement": "Selectivity: activity against HCT-116 compared with normal Vero cells", "setting": "[4]; Vero vs HCT-116", "value": 26, "unit": "fold"}, {"measurement": "Selectivity: activity against HepG2 compared with normal Vero cells", "setting": "[4]; Vero vs HepG2", "value": 10, "unit": "fold"}, {"measurement": "Toxicity to Vero cells less than that of sorafenib", "setting": "[4]; compared with sorafenib", "value": "about 2.5 fold"}]}
